Patent US11470844B2, “Vespidae wasp repellent” (KINP CO., LTD, priority 2015, dated 2022)

Assays:
[1] = test system: Vespa analis insularis (Fabricius) nest; test: Spraying on nest surface, philopatry and homing, Experiment 2; format: in vivo
Excerpt: The inventors investigated the worker's philopatry and homing circumstance to the nest as follows. After the above-described experiment 1, benzyl alcohol was intermittently sprayed three times on the entire surface of the same nest of Vespa analis insularis (Fabricius) by using a sprayer equipped with a nozzle having a length of 1.5 m. An adult wasp on the nest surface, worker entering and leaving the nest holes and worker coming close to the nest were shot with a video camera. The experiment was started at 14:01:30 and finished at 14:10. The numbers of the adult wasp on the nest surface and in the nest were counted immediately after the experiment. The number of adult wasp in the nest was counted by inserting the whole nest in a paper bag, sealing the paper bag, and then deconstructing the nest.

Vespa mandarinia worker = test: Black ball nest disturbance, Experiment 1 (ball with adsorbed alarm pheromone); format: in vivo; conditions: for total number of workers alighting on the black ball for attack: alarm pheromone adsorbed ball
Protocol: The experiment was conducted with utilizing a nest of Vespa mandarinia found in Kagawa Prefecture Kinbuchi Forest Park in Takamatsu City Kagawa Prefecture on Oct. 24, 2014. Since the nest was built in the ground, the nest could not be found except for the entrance thereof.
A vinyl ball of which diameter was 13 cm and which was coated with black lacquer was hung on the tip of a fishing rod having a length of 11 m. Hereinafter, the ball was abbreviated as “black ball”. After distilled water was sprayed on the entire surface, the vicinity of the nest entrance was disturbed by using the black ball. Specifically, the nest was disturbed by vibrating the black ball about 50 cm before the nest entrance in the air for about 10 seconds or vibrating the black ball in contact with the nest entrance for about 10 seconds. After the black ball was vibrated in the above-described conditions for about 10 seconds, the black ball was moved to the air of about 1 m before the nest entrance, and the behavior of the Vespa mandarinia worker against the black ball was shot and recorded for 2 minutes with a video camera. In the above condition, both of the black balls used in both conditions were attacked by the Vespa mandarinia workers and it is considered that the alarm pheromone was adsorbed on the black balls. Then, the black ball was kept away from the nest so that all the Vespa mandarinia workers were separated, 2-phenylethanol was sprayed on the entire surface, and the behavior of the workers against the black ball was similarly observed. The total number of workers alighting on the surface of the hemispherical side observable by the video image for attack during the vibration of the black ball was counted.

[2] = after first spray, 14:01:30 to 14:02:20
[3] = after second spray, 14:02:20 to 14:04:30
[4] = after third spray, 14:04:30 to 14:10:00

Structure (SMILES)	adult wasps on nest surface and in nest at the end of the experiment ([1]; 14:10, after three sprays)	Entered nest [1, 2]	Flew away from nest [1, 2]	Flew to and alighted on nest surface and then flew away [1, 2]	Flew to and came close to nest surface and then flew away [1, 2]	Entered nest [1, 3]	Flew away from nest [1, 3]	Flew to and alighted on nest surface and then flew away [1, 3]	Flew to and came close to nest surface and then flew away [1, 3]	Entered nest [1, 4]	Flew away from nest [1, 4]	Flew to and alighted on nest surface and then flew away [1, 4]	Flew to and came close to nest surface and then flew away [1, 4]	total number of workers alighting on the black ball for attack (Vespa mandarinia worker; Vibration in contact with nest entrance)	total number of workers alighting on the black ball for attack (Vespa mandarinia worker; Vibration in the air before nest entrance)	distance from the surface of the black ball at which workers changed direction and flew away (Vespa mandarinia worker; in vivo)
OCc1ccccc1 [Benzyl alcohol, benzyl alcohol]	All of the adult wasps got away from the nest	5	15	1	2	0	10	2	6	0	2	4	55	–	–	–
OCCc1ccccc1 [2-Phenylethanol, 2-phenylethanol]	–	–	–	–	–	–	–	–	–	–	–	–	–	0	0	about 10 cm
